pKi: −log10 of the molar value. Marks after values point to notes of the source that are not given here.
Key:
baseline motility = test: Baseline motility in mice (vehicle-pretreated, vehicle-challenged); format: in vivo, mouse; conditions: s.c., Std. Dev. in brackets
Description: Subjects. Male NMRI mice (Charles River) weighing approx. 35 g are used. […] 12 mice are used pr experimental group.
Experimental procedure. All mice are pre-treated once daily for five days with either d-amphetamine sulphate (2.5 mg/kg s.c.) or saline (10 ml/kg). For the 17 days between the last day of pre-treatment and the test day, the animals are kept in their homecage receiving the care as described above. The experiment is performed under normal light conditions in an undisturbed room. The mice are treated with test substance or vehicle and placed individually in the test cages for 30 min. The mice are then challenged with D-amphetamine sulphate (1.25 mg/kg s.c.) or saline (5 ml/kg) and replaced in the test-cage and data acquisition is begun. 5×8 infrared light sources and photocells interspaced by 4 cm monitor the locomotor activity. The light beams cross the cage 1.8 cm above the bottom of the cage.
Administration of compounds.
Data analyses. […] Similarly an ED50 for inhibiting baseline motility is calculated by expressed the motility response in vehicle-pretreated, vehicle-challenged, drug-treated animals relative to the baseline motility response. A therapeutic index value is subsequently calculated by dividing the first ED50 by the second.

[1] = tested on: extracellular DA levels in the nucleus accumbens; test: Microdialysis: amphetamine-evoked DA levels in the nucleus accumbens of freely moving rats; format: in vivo, rat; conditions: for Normalised DA level in the nucleus accumbens: compound 8.1 mg/kg s.c., D-amphetamine 0.5 mg/kg s.c. 30 min later
Description: Subjects. Male Sprague-Dawley rats (Charles River), initially weighing 275-300 g, are used.
Surgery. Animals are anaesthetized with hypnorm/dormicum (2 ml/kg s.c.) and intracerebral guide cannulas (CMA/12) are stereotaxically implanted, positioning the dialysis probe tip in the nucleus accumbens (co-ordinates: 1.7 mm anterior to bregma, −1.2 mm lateral to bregma, 8.0 mm ventral to the dura). Anchor screws and acrylic cement is applied for fixation of the guide cannula. The body temperature of the animals is maintained at 37° C. by means of a rectal probe and a heating plate. The rats are allowed to recover from surgery for 2 days, housed singly in cages.
Experimental procedure. On the day of the experiment, a microdialysis probe (CMA/12, 0.5 mm diameter, 2 mm length) is inserted through the guide cannula of the conscious animal. The probes are connected to a microinjection pump via a dual channel swivel which allowed the animals unrestricted movements. Perfusion of the microdialysis probe with filtered Ringer solution (145 mM NaCl, 3 mM KCl, 1 mM MgCl2, 1.2 mM CaCl2) is maintained for the duration of the experiment at a constant flow rate of 1 μL/min. After 180 min of stabilisation, the experiments are initiated. Dialysates are collected every 20 min. After the experiments the rats are sacrificed by decapitation, their brains removed, frozen and sliced for probe placement verification.
Administration of compounds. […] Thirty minutes later, D-amphetamine sulphate (0.5 mg/kg s.c.) is administered.
Analysis of dialysate. The concentration of DA in the dialysates is assessed by means of HPLC with electrochemical detection. The dialysate constituents are separated by reverse phase liquid chromatography (ODS 150×3 mm, […]). Mobile phase consists of 90 mM NaH2PO4, 50 mM sodium citrate, 367 mg/l sodium 1-octanesulfonic acid, 50 μM EDTA and 8% acetonitrile (pH 4.0) at a flow rate of 0.5 ml/min. Electrochemical detection of DA is accomplished using a coulometric detector; potential set at E1=−75 mV and E2=300 mV (guard cell at 350 mV) (Coulochem II, ESA). The dialysate levels of DA in the three dialyse samples preceding the administration of compound are averaged and used as baseline level of DA (100%)
Statistical analysis. The dialysate levels of DA in the three dialyse samples preceding the administration of compound are averaged and used as baseline level of DA (100%). Data are analysed using repeated measure analyses of variance followed by post hoc tests (Tukey test), when appropriate. *P<0.05 were considered significant.

[2] = tested on: social behaviours in the Mutual Resident Intruder rat test; test: Mutual Resident Intruder rat test; conditions: for % of time Agonistic behaviour: sum of defensive and aggressive behaviour
Description: Subjects. 5 week old male Wistar rats (Harlan, Germany) were used. The animals were housed in groups of four animals per cage and kept under a 12 h/12 h light dark rhythm (start of the dark phase at 2:00 p.m., CET), at 20° C. room temperature and 60% humidity. During the whole study, standard diet and tap water was provided ad libitum.
Experimental procedure. […] Therefore, half of the cage is the home territory of each animal. At test time, the wall is removed from the cage so that the animals can interact with each other for 15 minutes. Both animals are from the same test group. The cage is illuminated by dim red light. The test starts 1 hour after beginning of the dark phase. All animals are marked individually by means of black symbols on their back. Behaviour is registered by video. Each animal is tested once.
Analyses. In both the TE test and the MRI test, the portion of time (%) spent in non-social, friendly, defensive, aggressive or agonistic (sum of defensive and aggressive behaviour) behaviour was compared across the experimental groups against the relevant control group by means of Analysis of Variance (ANOVA) (one-factor).

[3] = molecular target: T1, noradrenergic α1A receptor (UniProt P18130); test: 3H-Prazosin binding assay, receptor expressed in baby hamster kidney cells; conditions: read-out: Ki, affinity towards noradrenergic α1A receptors
T1 sequence (P18130 1-466): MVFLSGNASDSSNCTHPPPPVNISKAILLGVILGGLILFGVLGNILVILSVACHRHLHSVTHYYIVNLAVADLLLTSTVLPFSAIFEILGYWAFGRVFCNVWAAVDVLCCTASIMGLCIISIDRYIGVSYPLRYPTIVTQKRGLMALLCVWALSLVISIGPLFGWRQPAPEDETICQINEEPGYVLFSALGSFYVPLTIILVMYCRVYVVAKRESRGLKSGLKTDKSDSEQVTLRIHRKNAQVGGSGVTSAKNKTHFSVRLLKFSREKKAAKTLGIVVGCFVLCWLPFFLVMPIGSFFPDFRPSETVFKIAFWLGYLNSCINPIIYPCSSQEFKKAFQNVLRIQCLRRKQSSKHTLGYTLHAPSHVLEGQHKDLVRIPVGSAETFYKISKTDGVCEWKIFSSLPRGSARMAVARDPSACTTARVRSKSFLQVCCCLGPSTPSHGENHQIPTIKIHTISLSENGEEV

[4] = tested on: d-amphetamine induced hyperactivity in rats; test: Amphetamine-induced hyperactivity in the rat (amphetamine antagonism); format: in vivo; conditions: read-out: Amphetamine antagonism ED50 (mg/kg) ± std. dev.
From the text: Subjects. Male Wistar rats (Taconic, Denmark) weighing 170-240 g are used. […] Eight rats are used at each dose level and in the parallel control group receiving the vehicle to the test compound plus d-amphetamine and the group receiving vehicle injections only.

[5] = 2 mg/kg s.c. 30 min before test
[6] = 10 mg/kg s.c. 30 min before test

## CCOC(=O)Nc1ccc(NCc2ccc(F)cc2)cc1N [Compound 1, reference compound]
Baseline motility
  Inhibition of baseline motility, ED50: 7.6 (1.3) mg/kg
[1]; Time 0 min (baseline sample)
  Normalised DA level in the nucleus accumbens: 96 ± 6 % of baseline
[1]; Time 20 min
  Normalised DA level in the nucleus accumbens: 160 ± 11 % of baseline
[1]; Time 40 min
  Normalised DA level in the nucleus accumbens: 241 ± 33 % of baseline
[1]; Time 60 min
  Normalised DA level in the nucleus accumbens: 221 ± 26* % of baseline
[1]; Time 80 min
  Normalised DA level in the nucleus accumbens: 217 ± 14* % of baseline
[1]; Time 100 min
  Normalised DA level in the nucleus accumbens: 173 ± 9 % of baseline
[1]; Time 120 min
  Normalised DA level in the nucleus accumbens: 139 ± 9 % of baseline
[1]; Time 140 min
  Normalised DA level in the nucleus accumbens: 120 ± 9 % of baseline
[1]; Time −20 min (baseline sample)
  Normalised DA level in the nucleus accumbens: 99 ± 6 % of baseline
[1]; Time −40 min (baseline sample)
  Normalised DA level in the nucleus accumbens: 105 ± 3 % of baseline
[1]; without amphetamine, data not shown
  Effect on the basal extracellular DA level in the nucleus accumbens: None of the latter three compounds significantly affects the basal extracellular DA level
[2]; [5]
  % of time Aggressive behaviour: 16.1 % of time
  % of time Defensive behaviour: 16.3 % of time
  % of time Friendly behaviour: 3.4 % of time
  % of time Non-social behaviour: 64.2 % of time
  % of time Agonistic behaviour: 32.4 % of time
[2]; [6]
  % of time Aggressive behaviour: 4.2*** % of time
  % of time Defensive behaviour: 3.6*** % of time
  % of time Friendly behaviour: 4.9* % of time
  % of time Non-social behaviour: 87.3*** % of time
  % of time Agonistic behaviour: 7.8*** % of time
[3]
  pKi: 5.70
[4]
  ED50: 2.3 mg/kg
